# Measured values: patent EP0103381B1, “Substituted anthra(1,9-cd)pyrazol-6(2H)-ones” (WARNER-LAMBERT COMPANY, priority 1982, dated 1984)
# Where two headings read alike, the source gives them in different places.
# Columns and labels:
# [1] = test system: HCT-8 (human colon adenocarcinoma) cells; test: in vitro activity against human colon adenocarcinoma (HCT-8), cell count; type: cell-based; conditions: HCT-8 human colon adenocarcinoma cells, 60-65 hrs incubation with compound, Coulter counter cell count as percentage of controls; read-out: ID50 (the source's name)
# Protocol: HCT-8 (human colon adenocarcinoma) cells are trypsinized using Trypsin-EDTA. A single cell suspension is achieved by passing the cells through a 26 gauge needle with a 20 cc syringe. A cell suspension is prepared using RPMI 1640 growth medium (available from Gibco Laboratories) +10% fetal calf serum +50 µg/ml garamycin with a cell concentration of approximately 30,000 cells/ml. The cell suspension is dispensed in Linbro 24-well plates; 1 ml/well. The plates are incubated for approximately 48 hrs at 37°C in a 5% C02 atmosphere. At this time test compounds are added in the appropriate concentration. Five µl of the 200 µg/ml stock solution is added to each well in a primary test. Ten pl of the appropriate dilution is added to each well for a titration test. The plates are reincubated an additional 60-65 hrs at 37°C in a 5% C02 atmosphere. The test is read by lysing the cells using a mix of cationic surfactant, glacial acetic acid and sodium chloride. […] of the lysed cell suspension from each well is added to 8 ml of diluent. Each sample is read with a Coulter counter (ZBI model). The activity of each sample is measured as a percentage of the controls and the data is reported as ID50, that is the molar quantity of drug required to kill 50% of the tumor cells.
# Escherichia coli = test: agar plate paper-disc inhibition zone screening; type: cell-based; conditions: read-out: Inhibition Zone Diameter mm (Dose mg/ml) E. Coli; for zone of inhibition at 1000 µg/mL: Dose 1.0 mg/ml
# In short: (§1)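 Overnight bacterial cultures were suspended in 0.85% saline to 20-35% light transmittancy and mixed into molten assay agar poured in trays. Compounds at 3,000, 1,000, 500, 100 and 10 mcg/ml (solvent <10%) were applied to 12.7 mm paper discs; after 18-20 h at 37°C, inhibition zone diameters were measured in mm.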
# Streptococcus faecalis = test: agar plate paper-disc inhibition zone screening; type: cell-based; conditions: Enterococcus faecalis, read-out: Inhibition Zone Diameter mm (Dose mg/ml) S. Faecalis
# In short: as §1
# Bacillus subtilis = test: agar plate paper-disc inhibition zone screening; type: cell-based; conditions: read-out: Inhibition Zone Diameter mm (Dose mg/ml) B. Subtilis
# In short: as §1
# Aerobacter aerogenes = test: agar plate paper-disc inhibition zone screening; type: cell-based; conditions: Klebsiella aerogenes, read-out: Inhibition Zone Diameter mm (Dose mg/ml) A. Aerogenes; for zone of inhibition at 500 µg/mL: Dose 0.5 mg/ml
# In short: as §1
# [2] = test system: lymphocytic leukemia P388; test: in vivo lymphocytic leukemia P388 test; parameters: species or system mice; conditions: Mus musculus, P388, ip, 720 h; for response vs control in vivo at 25 mg/kg: P388, Dose 25 mg/kg intraperitoneally
# In short: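 CD2F mice (6–7 per group) were inoculated intraperitoneally with P388 leukemia ascitic cells. Compounds were then given i.p. as two doses four days apart at various levels. Survival over 30 days was expressed as treated/control time ratio, efficacy criterion T/C×100 >125%.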
# Penicillium avellaneum = test: agar plate paper-disc inhibition zone screening; type: cell-based; conditions: Hamigera avellanea, read-out: Inhibition Zone Diameter mm (Dose mg/ml) P. Avellaneum
# In short: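 Mycelia and spores from a six-day 28°C agar culture, suspended in saline with 0.05% Tween 80 at 20% transmittancy, were seeded into molten agar trays. Compounds at 3,000, 1,000, 500, 100 and 10 mcg/ml (solvent <10%) were applied on 12.7 mm paper discs. After at least 20-24 h incubation, inhibition zone diameter was measured in mm.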
# [3] = P388, Dose 3.12 mg/kg intraperitoneally, two single doses four days apart, read-out: T/C × 100 (Percent)
# [4] = P388, Dose 6.25 mg/kg intraperitoneally, two single doses four days apart, read-out: T/C × 100 (Percent)
# [5] = P388, Dose 12.5 mg/kg intraperitoneally, two single doses four days apart, read-out: T/C × 100 (Percent)
# [6] = two single doses four days apart, read-out: T/C × 100 (Percent)
# [7] = P388, Dose 100 mg/kg intraperitoneally, two single doses four days apart, read-out: T/C × 100 (Percent)
# [8] = P388, Dose 50 mg/kg intraperitoneally, two single doses four days apart, read-out: T/C × 100 (Percent)
compound,measurement,setting,value
O=C1c2cccc(O)c2-c2nn(CCNCCO)c3ccc(NCCNCCO)c1c23,IC50,[1],1100 nM
CNCCNc1ccc2c3c(nn2CCNCCO)-c2cccc(O)c2C(=O)c13,IC50,[1],27 nM
O=C1c2c(O)cccc2-c2nn(CCNCCO)c3ccc(NCCNCCO)c1c23,IC50,[1],61 nM
NCCn1nc2c3c(c(NCCCNCCO)ccc31)C(=O)c1c(O)ccc(O)c1-2,IC50,[1],280 nM
NCCCNc1ccc2c3c(nn2CCN)-c2c(O)ccc(O)c2C(=O)c13,IC50,[1],850 nM
CNCCNc1ccc2c3c(nn2CCNCCO)-c2c(O)ccc(O)c2C(=O)c13,IC50,[1],400 nM
CN(CCO)CCn1nc2c3c(c(NCCNCCO)ccc31)C(=O)c1c(O)ccc(O)c1-2,IC50,[1],450 nM
CCN(CC)CC(O)Cn1nc2c3c(c(NCCN)ccc31)C(=O)c1c(O)ccc(O)c1-2 (stereo not shown),IC50,[1],460 nM
CCN(CC)CC(O)Cn1nc2c3c(c(NCCNCCO)ccc31)C(=O)c1c(O)ccc(O)c1-2 (stereo not shown),IC50,[1],690 nM
CCN(CC)CCn1nc2c3c(c(NCCNC)ccc31)C(=O)c1c(O)ccc(O)c1-2,IC50,[1],120 nM
CN(C)CCn1nc2c3c(c(NCCNCCO)ccc31)C(=O)c1c(O)ccc(O)c1-2,IC50,[1],180 nM
"NCCCNc1ccc2c3c(nn2CCNCCO)-c2c(O)ccc(O)c2C(=O)c13 [Example 58, 5-[(3-Aminopropyl)amino]-7,10-dihydroxy-2-[2-[(2-hydroxyethyl)amino]ethyl]anthra[1,9-cd]pyrazol-6(2H)-one]",zone of inhibition at 3000 µg/mL,Escherichia coli,15 mm
same,zone of inhibition at 3000 µg/mL,Streptococcus faecalis,0 mm
same,zone of inhibition at 3000 µg/mL,Bacillus subtilis,0 mm
same,zone of inhibition at 3000 µg/mL,Aerobacter aerogenes,14 mm
same,response vs control in vivo at 3.12 mg/kg,"[2]; read-out: T/C × 100 (Percent), P388, Dose 3.12 mg/kg intraperitoneally, two single doses four days apart",165%
same,response vs control in vivo at 6.25 mg/kg,"[2]; read-out: T/C × 100 (Percent), P388, Dose 6.25 mg/kg intraperitoneally, two single doses four days apart",165%
same,response vs control in vivo at 12.5 mg/kg,"[2]; read-out: T/C × 100 (Percent), P388, Dose 12.5 mg/kg intraperitoneally, two single doses four days apart",177%
same,response vs control in vivo at 50 mg/kg,"[2]; read-out: T/C × 100 (Percent), P388, Dose 50 mg/kg intraperitoneally, two single doses four days apart",254%
same,response vs control in vivo at 100 mg/kg,"[2]; read-out: T/C × 100 (Percent), P388, Dose 100 mg/kg intraperitoneally, two single doses four days apart",131%
same,zone of inhibition at 3000 µg/mL,Penicillium avellaneum,0 mm
"NCCCCNc1ccc2c3c(nn2CCNCCO)-c2c(O)ccc(O)c2C(=O)c13 [Example 59, 5-[(4-Aminobutyl)amino]-7,10-dihydroxy-2-[2-[(2-hydroxyethyl)amino]ethyl]anthra[1,9-cd]pyrazol-6(2H)-one]",zone of inhibition at 3000 µg/mL,Escherichia coli; Dose 3.0 mg/ml,15 mm
same,zone of inhibition at 3000 µg/mL,Streptococcus faecalis; Dose 3.0 mg/ml,0 mm
same,zone of inhibition at 3000 µg/mL,Bacillus subtilis; Dose 3.0 mg/ml,0 mm
same,zone of inhibition at 3000 µg/mL,Aerobacter aerogenes; Dose 3.0 mg/ml,16 mm
same,response vs control in vivo at 3.12 mg/kg,[2]; [3],130%
same,response vs control in vivo at 6.25 mg/kg,[2]; [4],131%
same,response vs control in vivo at 12.5 mg/kg,[2]; [5],139%
same,response vs control in vivo at 25 mg/kg,[2]; [6],150%
same,response vs control in vivo at 100 mg/kg,[2]; [7],172%
same,zone of inhibition at 3000 µg/mL,Penicillium avellaneum; Dose 3.0 mg/ml,0 mm
"NCCCCCNc1ccc2c3c(nn2CCNCCO)-c2c(O)ccc(O)c2C(=O)c13 [Example 60, 5-[(5-Aminopentyl)amino]-7,10-dihydroxy-2-[2-[(2-hydroxyethyl)amino]ethyl]anthra[1,9-cd]pyrazol-6(2H)-one]",zone of inhibition at 3000 µg/mL,Escherichia coli; Dose 3.0 mg/ml,14 mm
same,zone of inhibition at 3000 µg/mL,Streptococcus faecalis; Dose 3.0 mg/ml,0 mm
same,zone of inhibition at 3000 µg/mL,Bacillus subtilis; Dose 3.0 mg/ml,0 mm
same,zone of inhibition at 3000 µg/mL,Aerobacter aerogenes; Dose 3.0 mg/ml,0 mm
same,response vs control in vivo at 12.5 mg/kg,[2]; [5],127%
same,response vs control in vivo at 25 mg/kg,[2]; [6],127%
same,response vs control in vivo at 50 mg/kg,[2]; [8],127%
same,response vs control in vivo at 100 mg/kg,[2]; [7],150%
same,zone of inhibition at 3000 µg/mL,Penicillium avellaneum; Dose 3.0 mg/ml,0 mm
"O=C1c2c(O)ccc(O)c2-c2nn(CCNCCO)c3ccc(NCCCNCCO)c1c23 [Example 62, 7,10-Dihydroxy-2-[2-[(2-hydroxyethyl)amino]ethyl]-5-[[3-[(2-hydroxyethyt)amino]propyl]amino]anthra[1,9-cd] pyrazol-6(2H)-one]",zone of inhibition at 500 µg/mL,Escherichia coli; Dose 0.5 mg/ml,14 mm
same,zone of inhibition at 3000 µg/mL,Streptococcus faecalis; Dose 3.0 mg/ml,14 mm
same,zone of inhibition at 1000 µg/mL,Bacillus subtilis; Dose 1.0 mg/ml,16 mm
same,zone of inhibition at 500 µg/mL,Aerobacter aerogenes,14 mm
same,response vs control in vivo at 3.12 mg/kg,[2]; [3],173%
same,zone of inhibition at 3000 µg/mL,Penicillium avellaneum; Dose 3.0 mg/ml,0 mm
CN(C)CCNCCNc1ccc2c3c(nn2CCNCCO)-c2c(O)ccc(O)c2C(=O)c13 [Example 63],zone of inhibition at 1000 µg/mL,Escherichia coli,15 mm
same,zone of inhibition at 3000 µg/mL,Streptococcus faecalis; Dose 3.0 mg/ml,16 mm
same,zone of inhibition at 3000 µg/mL,Bacillus subtilis; Dose 3.0 mg/ml,18 mm
same,zone of inhibition at 1000 µg/mL,Aerobacter aerogenes; Dose 1.0 mg/ml,14 mm
same,response vs control in vivo at 3.12 mg/kg,[2]; [3],152%
same,response vs control in vivo at 6.25 mg/kg,[2]; [4],169%
same,zone of inhibition at 3000 µg/mL,Penicillium avellaneum; Dose 3.0 mg/ml,0 mm
"CN1CCN(c2ccc3c4c(nn3CCNCCO)-c3c(O)ccc(O)c3C(=O)c24)CC1 [Example 64, 7,10-Dihydroxy-2-[2-[(2-hydroxyethyl)amino]ethyl]-5-(4-methyl-1-piperazinyl)anthra[1,9-cd]pyrazol-6(2H)-one]",zone of inhibition at 1000 µg/mL,Escherichia coli,14 mm
same,zone of inhibition at 3000 µg/mL,Streptococcus faecalis; Dose 3.0 mg/ml,0 mm
same,zone of inhibition at 3000 µg/mL,Bacillus subtilis; Dose 3.0 mg/ml,0 mm
same,zone of inhibition at 500 µg/mL,Aerobacter aerogenes,17 mm
same,response vs control in vivo at 6.25 mg/kg,[2]; [4],163%
same,response vs control in vivo at 12.5 mg/kg,[2]; [5],169%
same,response vs control in vivo at 25 mg/kg,[2]; [6],150%
same,zone of inhibition at 3000 µg/mL,Penicillium avellaneum; Dose 3.0 mg/ml,0 mm
"CN(C)CCN(C)c1ccc2c3c(nn2CCNCCO)-c2c(O)ccc(O)c2C(=O)c13 [Example 65, 5-([2-(Dimethylamino)ethyl]methylamino]-7,10-dihydroxy-2-[2-[(2-hydroxyethyl)amino]ethyl]anthra[1,9-cd]pyrazol-6(2H)-one]",zone of inhibition at 3000 µg/mL,Escherichia coli; Dose 3.0 mg/ml,15 mm
same,zone of inhibition at 3000 µg/mL,Streptococcus faecalis; Dose 3.0 mg/ml,0 mm
same,zone of inhibition at 3000 µg/mL,Bacillus subtilis; Dose 3.0 mg/ml,0 mm
same,zone of inhibition at 500 µg/mL,Aerobacter aerogenes,16 mm
same,response vs control in vivo at 6.25 mg/kg,[2]; [4],179%
same,response vs control in vivo at 12.5 mg/kg,[2]; [5],188%
same,zone of inhibition at 3000 µg/mL,Penicillium avellaneum; Dose 3.0 mg/ml,0 mm
"COCCn1nc2c3c(c(NCCNCCO)ccc31)C(=O)c1c(O)ccc(O)c1-2 [Example 76, 7,10-Dihydroxy-5-[[2-[(2-hydroxyethyl)amino]ethyl]amino]-2-(2-methoxyethyl)anthra[1,9-cd]pyrazol-6(2H)-one]",zone of inhibition at 1000 µg/mL,Escherichia coli,14 mm
same,zone of inhibition at 3000 µg/mL,Streptococcus faecalis; Dose 3.0 mg/ml,0 mm
same,zone of inhibition at 3000 µg/mL,Bacillus subtilis; Dose 3.0 mg/ml,14 mm
same,zone of inhibition at 3000 µg/mL,Aerobacter aerogenes; Dose 3.0 mg/ml,14 mm
same,response vs control in vivo at 12.5 mg/kg,[2]; [5],127%
same,response vs control in vivo at 25 mg/kg,[2]; [6],127%
same,response vs control in vivo at 50 mg/kg,[2]; [8],135%
same,response vs control in vivo at 100 mg/kg,[2]; [7],139%
same,zone of inhibition at 3000 µg/mL,Penicillium avellaneum; Dose 3.0 mg/ml,0 mm
"CN(C)CCCn1nc2c3c(c(NCCN)ccc31)C(=O)c1c(O)ccc(O)c1-2 [Example 94, 5-[(2-Aminoethyl)amino]-2-[3-(dimethylamino)propyl]-7,10-dihydroxyanthra[1,9-cd]pyrazol-6(2H)-one]",zone of inhibition at 3000 µg/mL,Escherichia coli; Dose 3.0 mg/ml,15 mm
same,zone of inhibition at 3000 µg/mL,Streptococcus faecalis; Dose 3.0 mg/ml,0 mm
same,zone of inhibition at 3000 µg/mL,Bacillus subtilis; Dose 3.0 mg/ml,0 mm
same,zone of inhibition at 3000 µg/mL,Aerobacter aerogenes; Dose 3.0 mg/ml,15 mm
same,response vs control in vivo at 3.12 mg/kg,[2]; [3],191%
same,response vs control in vivo at 6.25 mg/kg,[2]; [4],186%
same,response vs control in vivo at 12.5 mg/kg,[2]; [5],224%
same,zone of inhibition at 3000 µg/mL,Penicillium avellaneum; Dose 3.0 mg/ml,0 mm
